Data on three compounds can be found in patent publication US6350749B1, “Aminoguanidine hydrazone derivatives, process for producing the same and drugs thereof” (Takeda Chemical Industries, Ltd., priority 1998, dated 2002).

The structures appear in SMILES notation. Where only a bound is given, the exact number is not on record here.

In series [1] the target is T1, Na—H exchange (Rattus norvegicus, UniProt P26431).
T1 construct: The blood was centrifuged at 3000 rpm for 5 seconds to obtain platelet rich plasma (PRP); from tissue; host or cells: platelets in platelet rich plasma from abdominal aortic blood of male Wistar rats
The series is described as follows: Rat platelet swelling in sodium propionate solution (light transmittance of PRP), inhibition of Na—H exchange. The series is classed as cell-based. The following applies: 1 min, test compound 10^−7 M; rat platelet rich plasma; value 1 minute after sodium propionate solution; 100% = difference between 1% DMSO and HOE-642 (10^−5M); read-out: Inhibition Rate (%) [10^−7 M]. On the procedure: Male Wistar rats (350-450 g) were anesthetized with sodium pentobarbital (50 mg/kg, i.p.). Using a disposable syringe pre-filled with 1.5 ml of 3.8% citric acid solution, 8.5 ml of blood was collected from the abdominal aorta. The blood was centrifuged at 3000 rpm for 5 seconds to obtain platelet rich plasma (PRP). The number of platelets in the PRP was counted by an automatic hemocytometer (Sysmex 2500, TOA Medical Electronics). The PRP was diluted with physiological saline to make the concentration of 40×10^4 platelets per 1 μl. A platelet aggregometer (Hematoracer, Niko Bioscience) was used for measurement of the platelet swelling. 200 μl of the PRP was poured into a cuvette and 600 μl of sodium propionate solution (Na propionate 135, glucose 10, Hepes 20, CaCl2 1, MgCl2 1; Units: mM; pH6.7) was added while stirring at 37° C. The change in the light transmittance of PRP which was an indicator of the platelet swelling was recorded on a plotter. The test compound was added 3 minutes before addition of the sodium propionate solution. The test compounds were dissolved in dimethylsulfoxide (DMSO).

T1 sequence (P26431 whole entry): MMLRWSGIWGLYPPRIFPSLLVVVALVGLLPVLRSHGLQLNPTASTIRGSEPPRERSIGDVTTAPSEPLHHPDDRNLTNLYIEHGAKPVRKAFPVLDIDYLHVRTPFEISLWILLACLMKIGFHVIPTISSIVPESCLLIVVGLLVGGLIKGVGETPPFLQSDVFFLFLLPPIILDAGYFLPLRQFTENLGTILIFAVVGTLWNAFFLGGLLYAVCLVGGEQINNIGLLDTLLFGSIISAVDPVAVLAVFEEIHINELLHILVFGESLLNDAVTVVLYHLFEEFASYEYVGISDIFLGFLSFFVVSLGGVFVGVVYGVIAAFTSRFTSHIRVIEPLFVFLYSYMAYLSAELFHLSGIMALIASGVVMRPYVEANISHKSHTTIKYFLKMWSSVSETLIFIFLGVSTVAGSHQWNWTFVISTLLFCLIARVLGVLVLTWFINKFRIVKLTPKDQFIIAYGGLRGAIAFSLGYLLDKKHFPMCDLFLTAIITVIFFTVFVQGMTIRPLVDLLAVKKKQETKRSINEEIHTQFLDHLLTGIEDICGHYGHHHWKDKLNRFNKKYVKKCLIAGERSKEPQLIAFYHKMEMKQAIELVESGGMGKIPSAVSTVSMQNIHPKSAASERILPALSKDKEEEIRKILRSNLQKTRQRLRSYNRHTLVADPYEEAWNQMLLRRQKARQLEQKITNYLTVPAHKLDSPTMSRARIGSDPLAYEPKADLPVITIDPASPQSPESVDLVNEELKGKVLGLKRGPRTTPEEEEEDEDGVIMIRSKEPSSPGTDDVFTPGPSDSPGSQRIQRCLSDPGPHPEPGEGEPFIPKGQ

As to `Cc1cnnc2c1C(=NNC(=N)N)CC(c1ccccc1Cl)C2.Cl` (stereo not drawn) [Compound 129, 7-(2-chlorophenyl)-5-guanidinoimino-4-methyl-5,6,7,8-tetrahydrocinnoline hydrochloride], the melting point fell in the range of 241 to 243 °C. Also, in series [1], the inhibition at 0.1 µM is 80%.

In turn, `Cc1cnnc2c1C(=NNC(=N)N)CC(c1cc(Cl)sc1Cl)C2.Cl` (stereo not drawn) [Compound 131, 7-(2,5-dichlorothiophen-3-yl)-5-guanidinoimino-4-methyl-5,6,7,8-tetrahydrocinnoline hydrochloride] registered a melting point not below 300 °C. In addition, the inhibition at 0.1 µM in series [1] was 88%.

Consider `CCc1cnnc2c1C(=NNC(=N)N)CC(c1ccccc1Cl)C2.CS(=O)(=O)O` (stereo not drawn) [Compound 133, 7-(2-chlorophenyl)-5-guanidinoimino-4-ethyl-5,6,7,8-tetrahydrocinnoline methanesulfonate], for which the melting point was 244 to 245 °C (dec.). The inhibition at 0.1 µM in series [1] was 87%.

Broadly, the melting point is the temperature of the solid-liquid transition. By inhibition is commonly meant the percentage by which the read-out fell short of the control.
